In one experiment the target is T1, 5-HT1A receptor (Homo sapiens, UniProt P08908).
T1 construct: gene HTR1A
T1 sequence (P08908 1-422): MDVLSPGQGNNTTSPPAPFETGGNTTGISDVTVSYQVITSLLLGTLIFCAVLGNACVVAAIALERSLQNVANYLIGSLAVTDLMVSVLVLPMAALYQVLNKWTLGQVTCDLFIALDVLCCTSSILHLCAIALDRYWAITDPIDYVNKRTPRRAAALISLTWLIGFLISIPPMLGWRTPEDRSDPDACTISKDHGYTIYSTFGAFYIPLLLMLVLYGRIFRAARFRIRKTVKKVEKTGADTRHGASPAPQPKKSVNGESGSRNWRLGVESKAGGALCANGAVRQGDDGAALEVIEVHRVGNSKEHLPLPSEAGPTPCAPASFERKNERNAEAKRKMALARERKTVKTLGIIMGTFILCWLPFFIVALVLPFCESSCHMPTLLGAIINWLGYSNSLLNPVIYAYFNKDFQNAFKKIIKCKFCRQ
Kind of experiment: radioligand displacement of [3H]-8-hydroxy-DPAT on membranes; supported by PathHunter β-arrestin PAM assay in CHO-K1 cells with human 5-HT1A. It is filed as binding. Particulars: read-out: % inhibition at 10 μM; 20% at 1 μM %.

A further experiment deals with T2, CB2 receptor (Homo sapiens, UniProt P34972).
T2 construct: gene CNR2
Description: radioligand displacement of [3H]-CP55940 on membranes. Particulars: read-out: % inhibition at 10 μM; none at 1 μM %. Format: binding. For orientation: Displacement assays read how much labelled ligand stays bound in the presence of the test substance.

The term inhibition denotes the percentage by which the read-out fell short of the control.

T2 sequence (P34972 whole entry): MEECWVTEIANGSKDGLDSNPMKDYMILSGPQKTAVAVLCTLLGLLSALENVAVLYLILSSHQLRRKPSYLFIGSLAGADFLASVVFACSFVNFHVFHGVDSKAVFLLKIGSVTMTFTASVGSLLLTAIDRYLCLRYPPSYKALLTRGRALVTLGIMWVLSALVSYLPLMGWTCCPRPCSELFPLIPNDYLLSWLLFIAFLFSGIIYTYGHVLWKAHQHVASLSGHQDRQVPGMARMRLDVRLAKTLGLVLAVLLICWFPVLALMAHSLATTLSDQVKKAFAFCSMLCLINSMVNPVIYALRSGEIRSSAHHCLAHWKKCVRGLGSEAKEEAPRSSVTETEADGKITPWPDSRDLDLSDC

Take `CCCCCc1cc(O)c2c(c1)OC1(C)CCC3C1C2C3(C)C` (racemic) [(±)-CBL]: the inhibition at 10 µM on 5-HT1A receptor was 75%; at CB2 receptor, 68%.

The record behind these values is article PMC11774245 (Journal of Natural Products, 2025).
